Laboratory results from article PMC5773577, “Novel Miniature Membrane Active Lipopeptidomimetics against Planktonic and Biofilm Embedded Methicillin-Resistant Staphylococcus aureus” (Scientific Reports, 2018).
Values after ≈ are worked out from the molar mass of the structure shown.

How the values were obtained:
MRSA ATCC 33591 biofilm = assay: Biofilm formation inhibition, alamar blue (AB) assay; type: cell-based, Staphylococcus aureus; conditions: 24 h biofilm formation inhibition, 2.5 μg/mL
Method: For the experiment, a protocol as described previously was used with slight modifications. Briefly, desired concentrations of the test agents in PBS were added to the wells of a 96-well plate (100 μL). Thereafter, overnight grown stationary phase MRSA ATCC 33591 culture (~4 × 10^5 CFU/mL) in TSB medium (supplemented with 0.25% glucose and 0.5% NaCl) was added to the 96-well plates (100 μL). The plates were incubated at 37 °C without shaking for 24 h. After 24 h, the used medium was discarded and the biofilms formed were washed with PBS once. Subsequently, CV and AB assays were performed to quantify biomass and viability respectively, as described below:
For AB assay, after washing the treated biofilms, a solution of 10% AB reagent in TSB medium (200 μL) was added to the wells of the plates. The plates were sonicated briefly in a bath sonicator (5 min) and kept at room temperature for 30 min in dark. After 30 min, fluorescence was measured by exciting the samples at 550 nm and collecting emission at 590 nm.
The experiments were repeated on two different days and on each day 6 wells were used for a single treatment. Mean ± S.E. for both CV assay and AB assay is presented here. Corresponding to CV and AB assay the viability of cells upon treatment was also evaluated. […] The agar plates were incubated at 37 °C for 16–24 h and CFUs were counted. […]

MRSA ATCC 33591 [1] = assay: Membrane depolarization assay, DiSC3(5); type: cell-based, Staphylococcus aureus; conditions: for % depolarization relative to melittin control (10 μM, set as 100%): 2 min, DiSC3(5), HEPES-glucose buffer pH 7.2, 37 °C, mean ± S.D., two days
Method: The cytoplasmic membrane depolarization in MRSA ATCC 33591 strain was measured using membrane potential sensitive dye 3,3′-dipropylthiacarbocyanine iodide (DiSC3(5)) with a protocol described previously with slight modifications[23],[48]. Briefly, exponential phase cells grown in MHB were harvested by centrifugation, washed and re-suspended in respiration buffer (5 mM HEPES, 20 mM glucose, pH 7.2) to 2.5 × 10^6 CFU/mL. The cells were divided into 1 mL aliquots and incubated with 3.6 μM of DiSC3(5) (in dark) for 30 min to get steady baseline fluorescence intensity. The dye-loaded cells (800 μL) were then treated with peptidomimetics at respective 1× and 4× MIC concentrations (2–20 μL) and consequent fluorescence increase after 2 min of addition was measured in a Shimadzu RF-5301 PC spectrofluorimeter. As controls IL, melittin and VAN were also assayed under identical conditions. The samples were excited at 622 nm and emission was recorded between 650–700 nm with 3 nm slit width for both excitation and emission. The temperature was maintained at 37 °C throughout the experiment. Depolarization kinetics was measured at 4 × MIC of test agents for 5 min. The experiment was repeated on two different days and for Fig. 3 panel (A) mean ± S.D. data for % depolarization relative to melittin control (10 μM) set as 100% is presented here. For panel (B) representative data is shown here. The viability of dye-loaded cells corresponding to depolarization experiment at 4 × MIC concentration was also measured by plating the diluted aliquots onto BHI agar plates.

[2] = tested on: Methicillin-resistant S. epidermidis (ATCC 35984); assay: microbe, parasite or virus in culture; type: cell-based, Staphylococcus epidermidis; conditions: Staphylococcus epidermidis, ATCC 35984 / MRSE; MRSE ATCC 35984; MHB, 2–5 × 10^5 CFU/mL, 16–18 h, 37 °C, OD600; read-out: Minimum inhibitory concentration, MIC
Method: The antibacterial activity was evaluated as MIC using slight modifications to a serial broth micro dilution method as reported previously[66],[67]. Briefly, to each treatment well of the 96-well plate (Corning Incorporated, USA) 10 μL of peptidomimetic/antibiotic was added and subsequently diluted serial 2-fold in 0.2% BSA (in 0.01% acetic acid). Then to each well of the first 11 columns 100 μL of mid-log phase bacterial suspension in MHB medium was added to get 2–5 × 10^5 CFU/mL. Cultures without test peptidomimetics/antibiotics were used as growth control. Uninoculated MHB medium was used as negative control. The microtitre plates were incubated overnight with agitation (180 rpm) at 37 °C. After 16–18 h incubation, absorbance was read at 600 nm using an ELISA plate reader (Molecular Devices, Sunnyvale, CA, USA). The experiments were carried out in duplicate on at least three different days.

MRSA ATCC 33591 [3] = assay: Membrane permeabilization assay, calcein-AM dye release, flow cytometry; type: cell-based, Staphylococcus aureus; conditions: PBS, 37 °C, mean ± S.D., two days
Method: To assess the effect of designed peptidomimetics on membrane integrity of MRSA ATCC 33591 strain a calcein-AM dye release experiment was performed using the protocol described previously with slight modifications. Briefly, exponential phase MRSA ATCC 33591 culture was prepared in MHB medium as mentioned earlier and adjusted to OD600 = 1 (~10^9 CFU/mL) in PBS (10 mM sodium phosphate, 150 mM NaCl, pH 7.4). Thereafter, the cells were incubated at 37 °C with calcein-AM (2 μg/mL) in 10% MHB medium for 2 h. The calcein-loaded cells were washed once and re-suspended in PBS to OD600 = 0.5 (~10^8 CFU/mL). […] Subsequently, calcein fluorescence was measured via flow cytometry (Becton Dickinson (BD) FACS verse, San Jose, CA) with excitation and emission wavelengths of 488 nm and 530 ± 30 nm, respectively. For each sample, 10,000 cells were acquired. As a positive control, melittin (10 μM) was assayed under identical conditions. The experiment was repeated on two different days and mean ± S.D. is presented here. Corresponding to leakage a viability assay at 4 × MIC of respective test agents was also performed by incubating samples for 2 h at 37 °C and plating the diluted aliquots on BHI agar plates.

CN[C@H](CC(C)C)C(=O)N[C@H]1C(=O)N[C@@H](CC(N)=O)C(=O)N[C@H]2C(=O)N[C@H]3C(=O)N[C@H](C(=O)N[C@H](C(=O)O)c4cc(O)cc(O)c4-c4cc3ccc4O)[C@H](O)c3ccc(c(Cl)c3)Oc3cc2cc(c3O[C@@H]2O[C@H](CO)[C@@H](O)[C@H](O)[C@H]2O[C@H]2C[C@](C)(N)[C@H](O)[C@H](C)O2)Oc2ccc(cc2Cl)[C@H]1O [VAN, vancomycin]
% viable cells compared to untreated control (AB assay) (MRSA ATCC 33591 biofilm): < 1% | Depolarization kinetics: time to increase in relative fluorescence intensity (RFI) (MRSA ATCC 33591 [1]; 4 × MIC, monitored for 5 min): RFI values similar to untreated control cells | % depolarization relative to melittin control (10 μM, set as 100%) (MRSA ATCC 33591 [1]; at 4 × MIC): 4.7 ± 4.1% | % depolarization relative to melittin control (10 μM, set as 100%) (MRSA ATCC 33591 [1]; at MIC): 2.9 ± 4.8% | MIC [2]: 2.8 µg/mL (≈ 1.93 µM) | % calcein leakage (MRSA ATCC 33591 [3]; at 4 × MIC, 2 min incubation): did not cause any leakage | % calcein leakage (MRSA ATCC 33591 [3]; at 4 × MIC, 2 h incubation): 11.9 ± 9.2% | % calcein leakage (MRSA ATCC 33591 [3]; at MIC, 2 min incubation): 1.6 ± 2.3%
